The target of this assay is T1, human amylin receptors (Homo sapiens, UniProt O60896+P30988).
T1 construct: host or cells: CHO-K1/Ga15/AMY3 cells, further stably transfected with a CRE-luciferase plasmid
T1 sequence (P30988 25-474): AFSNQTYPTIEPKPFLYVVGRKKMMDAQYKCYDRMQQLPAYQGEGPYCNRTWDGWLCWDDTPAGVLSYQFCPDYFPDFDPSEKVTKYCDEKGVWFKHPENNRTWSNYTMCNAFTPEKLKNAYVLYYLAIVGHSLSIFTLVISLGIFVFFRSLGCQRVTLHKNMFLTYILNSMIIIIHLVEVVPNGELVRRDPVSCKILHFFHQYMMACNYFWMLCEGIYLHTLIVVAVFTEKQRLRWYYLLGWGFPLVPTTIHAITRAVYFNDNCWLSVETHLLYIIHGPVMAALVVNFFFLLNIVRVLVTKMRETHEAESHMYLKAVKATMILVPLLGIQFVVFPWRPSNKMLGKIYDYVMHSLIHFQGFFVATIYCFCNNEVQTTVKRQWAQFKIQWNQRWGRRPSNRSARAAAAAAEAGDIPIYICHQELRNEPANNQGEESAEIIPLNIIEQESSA
T1 sequence (O60896 24-148 partner): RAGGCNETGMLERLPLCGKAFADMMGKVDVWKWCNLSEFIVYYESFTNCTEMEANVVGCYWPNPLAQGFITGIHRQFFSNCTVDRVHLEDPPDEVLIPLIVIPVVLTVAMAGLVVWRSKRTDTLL
The assay can be described thus: Luciferase assay in stably transfected amylin receptor/CRE-luc CHO cell line. It is filed as cell-based. Conditions: for Relative activity: EC50 ratio of Cagrilintide to the compound, Cagrilintide 100%; for EC50: amylin receptor/CRE-luc CHO cells, 24 hours incubation, luminescence.

These results are taken from patent US20260265329A1, “POLYPEPTIDE AND DERIVATIVE THEREOF, COMPOSITION, AND USE THEREOF” (HANGZHOU SCIWIND BIOSCIENCES CO., LTD., priority 2023, published 2026).

Starred links: 1 amine or outer side, 2 acyl side, 3 side chain; linkers in the order of their positions; H or OH if unused. Non-standard residues stand in square brackets, D forms with d. Residues, ends and D or L forms follow the SMILES beside them. *: point of attachment. C20 diacid = O=C(O)CCCCCCCCCCCCCCCCCCC(=O)*; C16 diacid = O=C(O)CCCCCCCCCCCCCCC(=O)*; γGlu = O=C(O)[C@H](CCC(=O)[*:2])N[*:1]; βAsp = O=C(O)[C@H](CC(=O)[*:2])N[*:1]; Hyp = O=C(O)[C@@H]1C[C@@H](O)CN1; AEEA = NCCOCCOCC(=O)O

On to `CC[C@H](C)[C@H](NC(=O)[C@H](CC(=O)O)NC(=O)[C@H](CCCNC(=N)N)NC(=O)[C@H](CC(=O)O)NC(=O)[C@H](CCCNC(=N)N)NC(=O)[C@H](CC(=O)O)NC(=O)[C@@H](NC(=O)[C@H](Cc1ccccc1)NC(=O)[C@H](Cc1c[nH]cn1)NC(=O)[C@H](CCCNC(=N)N)NC(=O)[C@H](CC(C)C)NC(=O)[C@H](Cc1ccccc1)NC(=O)[C@H](CC(=O)O)NC(=O)[C@H](C)NC(=O)[C@H](CC(C)C)NC(=O)[C@H](CCCNC(=N)N)NC(=O)[C@H](CCC(N)=O)NC(=O)[C@@H](NC(=O)[C@H](C)NC(=O)[C@H](C)NC(=O)[C@@H](NC(=O)[C@H](CO)NC(=O)[C@H](CC(C)C)NC(=O)[C@H](CCC(N)=O)NC(=O)[C@H](CO)NC(=O)[C@H](C)NC(=O)CC[C@H](NC(=O)CCCCCCCCCCCCCCC(=O)O)C(=O)O)[C@@H](C)O)[C@@H](C)O)[C@@H](C)O)C(=O)N[C@@H](CC(C)C)C(=O)N1CCC[C@H]1C(=O)N1CCC[C@H]1C(=O)N[C@H](C(=O)N[C@@H](CC(N)=O)C(=O)N[C@H](C(=O)NCC(=O)N[C@@H](CO)C(=O)N[C@@H](CC(N)=O)C(=O)N[C@H](C(=O)N1CCC[C@H]1C(N)=O)[C@@H](C)O)C(C)C)[C@@H](C)O` [M23] ({C16 diacid-γGlu}-ASQLSTAATQRLADFLRHFTDRDRDILPPTNVGSNTP-NH2), for which the Relative activity is 182% and the half-maximal effective concentration (EC50) came to 0.017 nM.
On the same counts, the results for `CC[C@H](C)[C@H](NC(=O)[C@H](CC(=O)O)NC(=O)[C@H](CCCNC(=N)N)NC(=O)[C@H](CC(=O)O)NC(=O)[C@H](CCCNC(=N)N)NC(=O)[C@H](CC(=O)O)NC(=O)[C@@H](NC(=O)[C@H](Cc1ccccc1)NC(=O)[C@H](Cc1c[nH]cn1)NC(=O)[C@H](CCCNC(=N)N)NC(=O)[C@H](CC(C)C)NC(=O)[C@H](Cc1ccccc1)NC(=O)[C@H](CC(=O)O)NC(=O)[C@H](C)NC(=O)[C@H](CC(C)C)NC(=O)[C@H](CCCNC(=N)N)NC(=O)[C@H](CCC(N)=O)NC(=O)[C@@H](NC(=O)[C@H](C)NC(=O)[C@H](C)NC(=O)[C@@H](NC(=O)[C@H](CO)NC(=O)[C@H](CC(C)C)NC(=O)[C@H](CCC(N)=O)NC(=O)[C@H](CO)NC(=O)[C@H](C)NC(=O)COCCOCCNC(=O)COCCOCCNC(=O)COCCOCCNC(=O)COCCOCCNC(=O)CC[C@H](NC(=O)CCCCCCCCCCCCCCCCCCC(=O)O)C(=O)O)[C@@H](C)O)[C@@H](C)O)[C@@H](C)O)C(=O)N[C@@H](CC(C)C)C(=O)N1CCC[C@H]1C(=O)N1CCC[C@H]1C(=O)N[C@H](C(=O)N[C@@H](CC(N)=O)C(=O)N[C@H](C(=O)NCC(=O)N[C@@H](CO)C(=O)N[C@@H](CC(N)=O)C(=O)N[C@H](C(=O)N1CCC[C@H]1C(N)=O)[C@@H](C)O)C(C)C)[C@@H](C)O` [M24] ({C20 diacid-γGlu-AEEA-AEEA-AEEA-AEEA}-ASQLSTAATQRLADFLRHFTDRDRDILPPTNVGSNTP-NH2) are 47% and 0.066 nM.
With `CC[C@H](C)[C@H](NC(=O)[C@H](CC(=O)O)NC(=O)[C@H](CCCNC(=N)N)NC(=O)[C@H](CC(=O)O)NC(=O)[C@H](CCCNC(=N)N)NC(=O)[C@H](CC(=O)O)NC(=O)[C@@H](NC(=O)[C@H](Cc1ccccc1)NC(=O)[C@H](Cc1c[nH]cn1)NC(=O)[C@H](CCCNC(=N)N)NC(=O)[C@H](CC(C)C)NC(=O)[C@H](Cc1ccccc1)NC(=O)[C@H](CC(=O)O)NC(=O)[C@H](C)NC(=O)[C@H](CC(C)C)NC(=O)[C@H](CCCNC(=N)N)NC(=O)[C@H](CCC(N)=O)NC(=O)[C@@H](NC(=O)[C@H](C)NC(=O)[C@H](C)NC(=O)[C@@H](NC(=O)[C@H](CO)NC(=O)[C@H](CC(C)C)NC(=O)[C@H](CCC(N)=O)NC(=O)[C@H](CO)NC(=O)[C@H](C)NC(=O)COCCOCCNC(=O)COCCOCCNC(=O)COCCOCCNC(=O)COCCOCCNC(=O)COCCOCCNC(=O)COCCOCCNC(=O)CC[C@H](NC(=O)CCCCCCCCCCCCCCCCCCC(=O)O)C(=O)O)[C@@H](C)O)[C@@H](C)O)[C@@H](C)O)C(=O)N[C@@H](CC(C)C)C(=O)N1CCC[C@H]1C(=O)N1CCC[C@H]1C(=O)N[C@H](C(=O)N[C@@H](CC(N)=O)C(=O)N[C@H](C(=O)NCC(=O)N[C@@H](CO)C(=O)N[C@@H](CC(N)=O)C(=O)N[C@H](C(=O)N1CCC[C@H]1C(N)=O)[C@@H](C)O)C(C)C)[C@@H](C)O` [M25] ({C20 diacid-γGlu-AEEA-AEEA-AEEA-AEEA-AEEA-AEEA}-ASQLSTAATQRLADFLRHFTDRDRDILPPTNVGSNTP-NH2), the Relative activity was 25%.
Take `CC[C@H](C)[C@H](NC(=O)[C@@H]1CCCN1C(=O)[C@H](CCCCN)NC(=O)[C@H](CC(C)C)NC(=O)[C@H](CC(N)=O)NC(=O)[C@H](CC(N)=O)NC(=O)[C@H](CO)NC(=O)[C@H](CO)NC(=O)[C@H](Cc1c[nH]cn1)NC(=O)[C@H](CCCNC(=N)N)NC(=O)[C@H](CC(C)C)NC(=O)[C@H](Cc1ccccc1)NC(=O)[C@H](CC(=O)O)NC(=O)[C@H](C)NC(=O)[C@H](CC(C)C)NC(=O)[C@H](CCCNC(=N)N)NC(=O)[C@H](CCC(N)=O)NC(=O)[C@@H](NC(=O)[C@H](C)NC(=O)[C@H](C)NC(=O)[C@@H](NC(=O)[C@H](CO)NC(=O)[C@H](CC(C)C)NC(=O)[C@H](CCC(N)=O)NC(=O)[C@H](CO)NC(=O)[C@H](C)NC(=O)[C@H](CCC(=O)O)NC(=O)CCCCCCCCCCCCCCCCCCC(=O)O)[C@@H](C)O)[C@@H](C)O)C(=O)N[C@@H](CC(C)C)C(=O)N1CCC[C@H]1C(=O)N1CCC[C@H]1C(=O)N[C@H](C(=O)N[C@@H](CC(N)=O)C(=O)N[C@H](C(=O)NCC(=O)N[C@@H](CO)C(=O)N[C@@H](CC(N)=O)C(=O)N[C@H](C(=O)N1C[C@H](O)C[C@H]1C(N)=O)[C@@H](C)O)C(C)C)[C@@H](C)O` [M26] ({C20 diacid}-EASQLSTAATQRLADFLRHSSNNLKPILPPTNVGSNT[Hyp]-NH2): the Relative activity is reported as 103% and the EC50 is 0.049 nM.
Taken in the same sequence, the figures for `CC[C@H](C)[C@H](NC(=O)[C@@H]1CCCN1C(=O)[C@H](CCCCN)NC(=O)[C@H](CC(C)C)NC(=O)[C@H](CC(N)=O)NC(=O)[C@H](CC(N)=O)NC(=O)[C@H](CO)NC(=O)[C@H](CO)NC(=O)[C@H](Cc1c[nH]cn1)NC(=O)[C@H](CCCNC(=N)N)NC(=O)[C@H](CC(C)C)NC(=O)[C@H](Cc1ccccc1)NC(=O)[C@H](CC(=O)O)NC(=O)[C@H](C)NC(=O)[C@H](CC(C)C)NC(=O)[C@H](CCCNC(=N)N)NC(=O)[C@H](CCC(N)=O)NC(=O)[C@@H](NC(=O)[C@H](C)NC(=O)[C@H](C)NC(=O)[C@@H](NC(=O)[C@H](CO)NC(=O)[C@H](CC(C)C)NC(=O)[C@H](CCC(N)=O)NC(=O)[C@H](CO)NC(=O)[C@H](C)NC(=O)C[C@H](NC(=O)CCCCCCCCCCCCCCCCCCC(=O)O)C(=O)O)[C@@H](C)O)[C@@H](C)O)C(=O)N[C@@H](CC(C)C)C(=O)N1CCC[C@H]1C(=O)N1CCC[C@H]1C(=O)N[C@H](C(=O)N[C@@H](CC(N)=O)C(=O)N[C@H](C(=O)NCC(=O)N[C@@H](CO)C(=O)N[C@@H](CC(N)=O)C(=O)N[C@H](C(=O)N1C[C@H](O)C[C@H]1C(N)=O)[C@@H](C)O)C(C)C)[C@@H](C)O` [M27] ({C20 diacid-βAsp}-ASQLSTAATQRLADFLRHSSNNLKPILPPTNVGSNT[Hyp]-NH2) were 78% and 0.064 nM.
On the same counts, the results for `CC[C@H](C)[C@H](NC(=O)[C@@H]1CCCN1C(=O)[C@H](CCCCN)NC(=O)[C@H](CC(C)C)NC(=O)[C@H](CC(N)=O)NC(=O)[C@H](CC(N)=O)NC(=O)[C@H](CO)NC(=O)[C@H](CO)NC(=O)[C@H](Cc1c[nH]cn1)NC(=O)[C@H](CCCNC(=N)N)NC(=O)[C@H](CC(C)C)NC(=O)[C@H](Cc1ccccc1)NC(=O)[C@H](CC(=O)O)NC(=O)[C@H](C)NC(=O)[C@H](CC(C)C)NC(=O)[C@H](CCCNC(=N)N)NC(=O)[C@H](CCC(N)=O)NC(=O)[C@@H](NC(=O)[C@H](C)NC(=O)[C@H](C)NC(=O)[C@@H](NC(=O)[C@H](CO)NC(=O)[C@H](CC(C)C)NC(=O)[C@H](CCC(N)=O)NC(=O)[C@H](CO)NC(=O)[C@H](C)NC(=O)[C@H](CC(=O)O)NC(=O)CCCCCCCCCCCCCCCCCCC(=O)O)[C@@H](C)O)[C@@H](C)O)C(=O)N[C@@H](CC(C)C)C(=O)N1CCC[C@H]1C(=O)N1CCC[C@H]1C(=O)N[C@H](C(=O)N[C@@H](CC(N)=O)C(=O)N[C@H](C(=O)NCC(=O)N[C@@H](CO)C(=O)N[C@@H](CC(N)=O)C(=O)N[C@H](C(=O)N1C[C@H](O)C[C@H]1C(N)=O)[C@@H](C)O)C(C)C)[C@@H](C)O` [M28] ({C20 diacid}-DASQLSTAATQRLADFLRHSSNNLKPILPPTNVGSNT[Hyp]-NH2) are 128% and 0.039 nM.

The EC50 is the midpoint of the concentration-response curve.
